A short description of data set [1]: Human HepG2 cell viability assay in 384 well format. Type of data set: toxicity, cell-based. Also noted: dose 125 nL, time 70.5 hour; cytotoxicity at 70.5 h: concentration not given beside the values. The settings on record: HepG2 cells, read-out: Inhibition.
Data set [2] can be described thus: Human HepG2 cell viability dose-response assay. Type of data set: toxicity, cell-based.

The structures appear in SMILES notation. Values joined by “and” are separate entries in the source; they are usually repeats but may differ in a detail not shown here. Identical values can stand only once.

In the case of `O=C(Nc1cc(C(F)(F)F)c[nH]c1=O)c1ccco1`, the cytotoxicity at 70.5 h in data set [1] was found to be 64%. In data set [2], the BOTTOM is -14.03 and -12.55; the HILLSLOPE is 1.1 and 1.086; the TOP is 100; the pXC50 was 4.903 and 4.796.
For `Cn1nc(C(=O)NCc2ccccn2)c2c1CCS(=O)(=O)C2`, in data set [1], the cytotoxicity at 70.5 h worked out at 88.4%. Moreover, in data set [2], the BOTTOM is recorded as 0, the HILLSLOPE was 0, the TOP is 0 and the pXC50 is listed as less than 4.53.
As to `Fc1cccc(Nc2nc(N3CCCC3)nc3c2CNCC3)c1`, the cytotoxicity at 70.5 h in data set [1] came to 80.4%. For the same compound, in data set [2], the HILLSLOPE was 8.053 and 11.8; the TOP was 102.5 and 101.7; the pXC50 is 5.055 and 5.01.
In the case of `Cc1ccc(S(=O)(=O)N2C[C@H]3C[C@H](NC(=O)c4cc[nH]n4)[C@H]3C2)cc1`, the cytotoxicity at 70.5 h in data set [1] was found to be 61.6%. In addition, in data set [2], the BOTTOM was -15.24 and -16.22; the HILLSLOPE is 0.6106 and 0.5978; the TOP stood at 100; the pXC50 was 5.239 and 5.299.
Consider `COc1ccccc1NC(=O)c1ccc(C)n1C`, for which the cytotoxicity at 70.5 h in data set [1] is 96%. Besides, in data set [2], the BOTTOM is -9.133 and -11.57; the HILLSLOPE is 2.979 and 2.832; the TOP is listed as 100; the pXC50 was 5.661 and 5.693.
Regarding `Cc1cc(NC2CCc3nc(C(C)C)nn3C2)n2ncnc2n1` (configuration not stated), in data set [1], the cytotoxicity at 70.5 h turned out to be 84.4%. In data set [2], this compound gave a BOTTOM of 0, an HILLSLOPE of 0, a TOP of 0 and a pXC50 of less than 4.53.
As to `Cc1n[nH]c(C2CN(CC(=O)NCCC3=CCCCC3)CCO2)n1` (configuration not stated), in data set [1], the cytotoxicity at 70.5 h stood at 76.6%. Moreover, in data set [2], the BOTTOM is 0, the HILLSLOPE worked out at 0, the TOP is given as 0 and the pXC50 was less than 4.53.
For the compound `Cc1nn(C)cc1C(=O)Nc1cccc(CN2CCC(CO)CC2)c1`, in data set [1], the cytotoxicity at 70.5 h was determined as 60.6%. In data set [2], this compound returned a BOTTOM of 0, an HILLSLOPE of 0, a TOP of 0 and a pXC50 of less than 4.53.
`OC1COCCN(Cc2cc(-c3ccccc3OC(F)(F)F)no2)C1` (configuration not stated): the cytotoxicity at 70.5 h in data set [1] was found to be 60%. Further, in data set [2], the BOTTOM came to 0, the HILLSLOPE amounted to 0, the TOP was 0 and the pXC50 is less than 4.53.
As to `CCc1[nH]c2c(CNc3cc(C)nc(NC)n3)cc(C)cc2c1C`, the cytotoxicity at 70.5 h in data set [1] amounted to 98.3%. In data set [2], the BOTTOM was -3.677 and -3.483; the HILLSLOPE is 3.229 and 3.201; the TOP is 103.4 and 104.1; the pXC50 was 5.247 and 5.258.
As to `Cc1nc(CC(C)C)cc(C(=O)N2C[C@@H](N(C)C)[C@H](C(C)C)C2)n1`, in data set [1], the cytotoxicity at 70.5 h came to 67%. Besides, in data set [2], the BOTTOM is reported as 0, the HILLSLOPE came out at 0, the TOP was 0 and the pXC50 is recorded as less than 4.53.
For the compound `NCC1CCN(C2CCN(c3ccc(-c4ccco4)cc3)CC2)C1` (configuration not stated), the cytotoxicity at 70.5 h in data set [1] was 102%. In addition, in data set [2], the BOTTOM is -8.648 and -4.813; the HILLSLOPE is 7.574 and 7.233; the TOP is 102.1 and 102.4; the pXC50 is 5.593 and 5.596.
As for `CC(C)c1cc(CN2CCNCC2)no1`, in data set [1], the cytotoxicity at 70.5 h was 94.6%. In data set [2], the BOTTOM is -2.548 and -2.696; the TOP was 101.6 and 102.2; the pXC50 is 4.866 and 4.991.
Consider `O=C(CCNCC(F)(F)F)N1CCC(Nc2cccnn2)CC1`, for which the cytotoxicity at 70.5 h in data set [1] was determined as 66.1%. In addition, in data set [2], the BOTTOM is given as 0, the HILLSLOPE came out at 0, the TOP is given as 0 and the pXC50 is given as less than 4.53.
Take `Cc1noc(CN2CCOC(CN(C)C)C2)n1` (configuration not stated): in data set [1], the cytotoxicity at 70.5 h was found to be 70.1%. Also, in data set [2], the BOTTOM turned out to be 0, the HILLSLOPE is reported as 0, the TOP is given as 0 and the pXC50 is reported as less than 4.53.
For the compound `Cc1noc(C)c1C(=O)N1CCCC1c1c(C)nn(C)c1Cl` (configuration not stated), the cytotoxicity at 70.5 h in data set [1] stood at 103%. Also, in data set [2], the BOTTOM came out at 0, the HILLSLOPE came to 0, the TOP worked out at 0 and the pXC50 is reported as less than 4.53.
`CCc1nc(CN(C)C2CCN(Cc3cnc(C)cn3)C2)no1` (configuration not stated): the cytotoxicity at 70.5 h in data set [1] was 66%. In data set [2], this compound registered a BOTTOM of 0, an HILLSLOPE of 0, a TOP of 0 and a pXC50 of less than 4.53.
On to `Cc1nc(Nc2ncc(C)s2)cc(C2CCCN2)n1.Cl` (configuration not stated), for which the cytotoxicity at 70.5 h in data set [1] is 95.5%. In data set [2], the BOTTOM is 26.01 and 24.5; the HILLSLOPE was 4.462 and 3.743; the TOP was 100.2 and 98.81; the pXC50 was 5.319 and 5.315.
Take `COc1ccc(CNC(Cc2ccsc2)c2ccc(C)cn2)cc1OC.Cl` (configuration not stated): the cytotoxicity at 70.5 h in data set [1] stood at 91.5%. Besides, in data set [2], the BOTTOM is -6.281 and -3.457; the HILLSLOPE was 2.493 and 1.7; the TOP is 86.66 and 100; the pXC50 is 5.471 and 5.341.
As to `Cl.Cl.Clc1cccc(C[C@@H]2NCCC[C@@H]2Nc2cccc(Cl)c2)c1`, the cytotoxicity at 70.5 h in data set [1] turned out to be 105%. Also, in data set [2], the HILLSLOPE was 19.49 and 7.416; the TOP was 101.7 and 101.8; the pXC50 was 5.461 and 5.474.
Regarding `CC(C)N1CCN(c2ccc3ccc(C(=O)NC4CCCC4)cn23)CC1.O=C(O)C(F)(F)F`, the cytotoxicity at 70.5 h in data set [1] amounted to 101%. In data set [2], this compound displayed a BOTTOM of 0, an HILLSLOPE of 0, a TOP of 0 and a pXC50 of less than 4.53.

For the origin of these results see ChEMBL document CHEMBL3507680, “University of Dundee, Gates Library screen for HepG2 cell viability”.
